Tests used:
Cathepsin S = Cathepsin S (Homo sapiens, UniProt P25774); assay: Cathepsin S inhibition assay (fluorogenic peptide substrate); assay type: biochemical; conditions: Table II, compounds of Formula I; read-out: Ki Cat. S
In short: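 Ki values come from nonlinear fitting of inhibited hydrolysis rates, taking free and total inhibitor concentrations as equal. Rates measured as rising fluorescence at 380/450 nm after reaction start with 50 μM final acetyl-HPVK-aminocarbamoylcoumarin.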

Cathepsin K = molecular target: T1, Cathepsin K (Homo sapiens, UniProt P43235); assay: Cathepsin K inhibition assay (fluorogenic peptide substrate); selectivity ratio vs cathepsin S; assay type: biochemical; conditions: ratio of cathepsin K inhibition constant to cathepsin S inhibition constant; Table II
T1 sequence (P43235 115-329): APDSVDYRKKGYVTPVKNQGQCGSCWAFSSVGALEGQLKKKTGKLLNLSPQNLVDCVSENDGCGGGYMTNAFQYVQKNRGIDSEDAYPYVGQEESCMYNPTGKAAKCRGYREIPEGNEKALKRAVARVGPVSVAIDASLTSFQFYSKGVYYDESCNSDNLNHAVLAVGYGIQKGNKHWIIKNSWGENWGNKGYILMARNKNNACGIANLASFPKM
In short: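 Fluorogenic kinetic assay, started with acetyl-Lys-His-Pro-Lys-aminocarbamoylcoumarin at 40 μM final, hydrolysis followed at ex 380/em 450 nm. Apparent inhibition constants from progress curves, converted to competitive inhibition constants. Selectivity expressed as isozyme inhibition constant divided by cathepsin S inhibition constant.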

Chain of Cathepsin S (P25774 115-331, species assumed): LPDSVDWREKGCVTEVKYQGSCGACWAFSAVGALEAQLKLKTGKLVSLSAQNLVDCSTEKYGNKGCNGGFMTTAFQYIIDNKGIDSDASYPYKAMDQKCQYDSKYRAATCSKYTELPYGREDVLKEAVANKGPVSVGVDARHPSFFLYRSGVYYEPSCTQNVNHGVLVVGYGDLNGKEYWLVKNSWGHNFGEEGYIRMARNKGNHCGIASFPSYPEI

Compound	Ki (Cathepsin S)	Selectivity for Cat. S over Cat. K (Cathepsin K)
O=C(Cc1ccc(F)cc1F)N[C@@H](CC1CCCCC1)C(=O)NCCNc1ccc(F)cc1 [Compound 100, 3-Cyclohexyl-2-(S)-[2-(2,4-difluoro-phenyl)-acetylamino]-N-[2-(4-fluoro-phenylamino)-ethyl]-propionamide]	< 0.1 µM	+++ (+++, >1000)
O=C(N[C@@H](CC1CCCCC1)C(=O)NCCNc1ccc(OC(F)(F)F)cc1)c1ccc(-c2cccc(F)c2)o1 [Compound 31, 5-(3-Fluoro-phenyl)-furan-2-carboxylic acid (S)-{2-cyclohexyl-1-[2-(4-trifluoromethoxy-phenylamino)-ethylcarbamoyl]-ethyl}-amide]	< 0.1 µM	+ (+, >10)
COc1ccc(NCCNC(=O)[C@H](CC2CCCCC2)NC(=O)c2ccc3ncsc3c2)cc1 [Compound 186, (S)-Benzothiazole-6-carboxylic acid {2-cyclohexyl-1-[2-(4-methoxy-phenylamino)-ethylcarbamoyl]-ethyl}-amide]	< 0.1 µM	++ (++, >100)
COc1ccc(NCCNC(=O)[C@H](CC2CCCCC2)NC(=O)[C@@H](C)c2ccccc2)cc1 [Compound 192, N-{2-Cyclohexyl-1-(S)-[2-(4-methoxy-phenylamino)-ethylcarbamoyl]-ethyl}-2-(S)-phenyl-propionamide]	< 0.1 µM	+++ (+++, >1000)
O=C(N[C@@H](CC1CCCCC1)C(=O)NCCNc1ccc(F)cc1)C1CC1 [Compound 298, Cyclopropanecarboxylic acid (S)-{2-cyclohexyl-1-[2-(4-fluoro-phenylamino)-ethylcarbamoyl]-ethyl}-amide]	< 0.1 µM	++ (++, >100)
COc1ccc(NCCNC(=O)[C@H](CCC2CCCCC2)NC(=O)c2cccc(-c3ccccc3)c2)cc1 [Compound 144, (S)-Biphenyl-3-carboxylic acid {3-cyclohexyl-1-[2-(4-methoxy-phenylamino)-ethylcarbamoyl]-propyl}-amide]	< 1 µM	+++ (+++, >1000)
COc1ccc(NCCNC(=O)[C@H](Cc2ccc([N+](=O)[O-])cc2)NC(=O)c2cccc(C)c2)cc1 [Compound 244, (S)-N-[1-[2-(4-Methoxy-phenylamino)-ethylcarbamoyl]-2-(4-nitro-phenyl)-ethyl]-3-methyl-benzamide]	< 1 µM	+++ (+++, >1000)
COc1ccc(NCCNC(=O)[C@H](Cc2ccc(-c3ccccc3C(C)=O)cc2)NC(=O)c2cccc(C)c2)cc1 [Compound 288, (S)-N-{2-(2′-Acetyl-biphenyl-4-yl)-1-[2-(4-methoxy-phenylamino)-ethylcarbamoyl]-ethyl}-3-methyl-benzamide]	< 1 µM	++ (++, >100)
COc1ccc(NCCNC(=O)[C@H](Cc2ccc(-c3cccc(CO)c3)cc2)NC(=O)c2cccc(C)c2)cc1 [Compound 284, (S)-N-{2-(3′-Hydroxymethyl-biphenyl-4-yl)-1-[2-(4-methoxy-phenylamino)-ethylcarbamoyl]-ethyl}-3-methyl-benzamide]	< 1 µM	++ (++, >100)
COc1ccc(NCCNC(=O)C(NC(=O)c2cccc(C)c2)c2ccc(OCc3ccccc3)cc2)cc1 (stereo not drawn) [Compound 217, N-{(4-Benzyloxy-phenyl)-[2-(4-methoxy-phenylamino)-ethylcarbamoyl]-methyl}-3-methyl-benzamide]	< 1 µM	+++ (+++, >1000)
COc1ccc(NCCNC(=O)C(NC(=O)c2cccc(C)c2)c2ccccc2Cl)cc1 (stereo not drawn) [Compound 216, N-{(2-Chloro-phenyl)-[2-(4-methoxy-phenylamino)-ethylcarbamoyl]-methyl}-3-methyl-benzamide]	< 1 µM	+++ (+++, >1000)
COc1ccc(NCCNC(=O)[C@H](CCC2CCCCC2)NC(=O)c2ccc(-c3ccccc3)cc2)cc1 [Compound 130, (S)-Biphenyl-4-carboxylic acid {3-cyclohexyl-1-[2-(4-methoxy-phenylamino)-ethylcarbamoyl]-propyl}-amide]	< 10 µM	+ (+, >10)
CC[C@H](C(=O)N[C@@H](CC1CCCCC1)C(=O)NCCNc1ccc(OC)cc1)c1ccccc1 [Compound 164, N-{2-Cyclohexyl-1-(S)-[2-(4-methoxy-phenylamino)-ethylcarbamoyl]-ethyl}-2-(S)-phenyl-butyramide]	< 0.1 µM	+++ (+++, >1000)
COc1ccc(NCCNC(=O)[C@H](CC2CCCCC2)NC(=O)c2cc(F)cc(C(F)(F)F)c2)cc1 [Compound 165, (S)-N-{2-Cyclohexyl-1-[2-(4-methoxy-phenylamino)-ethylcarbamoyl]-ethyl}-3-fluoro-5-trifluoromethyl-benzamide]	< 0.1 µM	+++ (+++, >1000)
O=C(Cc1nnn[nH]1)N[C@@H](CC1CCCCC1)C(=O)NCCNc1ccc(F)cc1 [Compound 297, 3-Cyclohexyl-N-[2-(4-fluoro-phenylamino)-ethyl]-2-(S)-(2-1H-tetrazol-5-yl-acetylamino)-propionamide]	< 1 µM	++ (++, >100)
CC(C(=O)N[C@@H](CC1CCCCC1)C(=O)NCCNc1ccc(F)cc1)c1ccc(O)cc1 (stereo partly drawn) [Compound 311, N-{2-cyclohexyl-1-(S)-[2-(4-fluoro-phenylamino)-ethylcarbamoyl]-ethyl}-2-(4-hydroxy-phenyl)-propionamide]	< 0.1 µM	+ (+, >10)
Cc1cc2ncc(C(=O)N[C@@H](CC3CCCCC3)C(=O)NCCNc3ccc(OC(F)(F)F)cc3)c(C)n2n1 [Compound 48, 2,7-Dimethyl-pyrazolo[1,5-a]pyrimidine-6-carboxylic acid (S)-{2-cyclohexyl-1-[2-(4-trifluoromethoxy-phenylamino)-ethylcarbamoyl]-ethyl}-amide]	< 1 µM	++ (++, >100)
COc1ccc(NCCNC(=O)[C@H](Cc2ccc(Oc3cc(Cl)cc(Cl)c3)cc2)NC(=O)c2cccc(C)c2)cc1 [Compound 18, (S)-N-{2-[4-(3,5-Dichloro-phenoxy)-phenyl]-1-[2-(4-methoxy-phenylamino)-ethylcarbamoyl]-ethyl}-3-methyl-benzamide]	< 10 µM	+ (+, >10)
O=C(O)c1ccc(NCCNC(=O)[C@H](CC2CCCCC2)NC(=O)c2ccc(-c3cccc(C(F)(F)F)c3)o2)cc1 [Compound 11, 4-[2-(3-Cyclohexyl-2-(S)-{[5-(3-trifluoromethyl-phenyl)-furan-2-carbonyl]-amino}-propionylamino)-ethylamino]-benzoic acid]	< 0.1 µM	+ (+, >10)
COc1ccc(NCCNC(=O)[C@H](CC2CCCCC2)NC(=O)c2ccc(-c3ccc4c(c3)OCO4)cc2)cc1 [Compound 176, (S)-4-Benzo[1,3]dioxol-5-yl-N-{2-cyclohexyl-1-[2-(4phenylamino)-ethylcarbamoyl]-ethyl}-benzamide]	< 0.1 µM	+++ (+++, >1000)
O=C(Cc1ccc(OC(F)(F)F)cc1)N[C@@H](CC1CCCCC1)C(=O)NCCNc1ccc(F)cc1 [Compound 87, 3-Cyclohexyl-N-(S)-[2-(4-fluoro-phenylamino)-ethyl]-2-[2-(4-trifluoromethoxy-phenyl)-acetylamino]-propionamide]	< 0.1 µM	++ (++, >100)
COc1ccc(NCCNC(=O)[C@H](Cc2ccccc2)NC(=O)c2cccc(-c3csc(C)n3)c2)cc1 [Compound 56, (S)-N-{1-[2-(4-Methoxy-phenylamino)-ethylcarbamoyl]-2-phenyl-ethyl}-3-(2-methyl-thiazol-4-yl)-benzamide]	< 1 µM	++ (++, >100)
CS(=O)(=O)c1ccc(C(=O)N[C@@H](CC2CCCCC2)C(=O)NCCNc2ccc(OC(F)(F)F)cc2)cc1 [Compound 19, N-(S)-{2-cyclohexyl-1-[2-(4-trifluoromethoxy-phenylamino)-ethylcarbamoyl]-ethyl}-4-methanesulfonyl-benzamide]	< 1 µM	+ (+, >10)
COc1ccc(NCCNC(=O)[C@H](Cc2ccccc2)NC(=O)CC2C=CCC2)cc1 (stereo partly drawn) [Compound 82, (S)-2-(2-Cyclopent-2-enyl-acetylamino)-N-[2-(4-methoxy-phenylamino)-ethyl]-3-phenyl-propionamide]	< 1 µM	+ (+, >10)
COc1ccc(NCCNC(=O)[C@H](CC2CCCCC2)NC(=O)c2cc(Br)cc(Br)c2)cc1 [Compound 178, (S)-3,5-Dibromo-N-{2-cyclohexyl-1-[2-(4-methoxy-phenylamino)-ethylcarbamoyl]-ethyl}-benzamide]	< 0.1 µM	+++ (+++, >1000)
COc1ccc(NCCNC(=O)[C@H](Cc2ccc(-c3cc(F)ccc3OC)cc2)NC(=O)c2cccc(C)c2)cc1 [Compound 283, (S)-N-{2-(5′-Fluoro-2′-methoxy-biphenyl-4-yl)-1-[2-(4-methoxy-phenylamino)-ethylcarbamoyl]-ethyl}-3-methyl-benzamide]	< 1 µM	++ (++, >100)
O=C(N[C@@H](CC1CCCCC1)C(=O)NCCNc1ccc(OC(F)(F)F)cc1)c1ccc(OCc2ccccc2)cc1 [Compound 232, (S)-4-Benzyloxy-N-{2-cyclohexyl-1-[2-(4-trifluoromethoxy-phenylamino)-ethylcarbamoyl]-ethyl}-benzamide]	< 0.1 µM	+ (+, >10)

Source: US7109243B2 (IRM LLC, priority 2003, dated 2006)
